From patent publication EP0791056B1, “LIPID-CLEAVAGE ENZYME COMPLEX” (priority 1994, dated 1996)
Where “and” joins values, the source holds several entries; their conditions need not be identical. Equal values may be shown once. Read-outs that look alike come from different tables or passages of the source.

Experiments:
[1] = system: LCE; experiment: Substrate cleavage by LCE; type: biochemical; details: cleavage to drug monophosphate and DMDOP
Description: Das Enzym wird vorzugsweise aus humanen peripheren Blutleukozyten, die zuvor durch PHA oder andere Stimulantien (z.B. Cytokine, etc.) aktiviert wurden, oder aus murinen Nierenzellen isoliert. Aus vorläufigen Untersuchungen ergibt sich ein Molekulargewicht von etwa 120.000 - 160.000, bestimmt nach der SDS-PAGE-Methode. Zellen, die dieses Enzym enthalten, können auf einfache Weise dadurch identifiziert werden, indem sie unter geeigneten Testbedingungen mit einer Lösung von AZT-DMDOPE oder FLT-DMDOPE versetzt werden und die Spaltprodukte AZT-monophosphat bzw. FLT-monophosphat oder DMDOP nachgewiesen werden, beispielsweise durch dünnschichtchromatographische Methoden oder im Fall von radioaktiv markierten Proben durch szintillatographische Verfahren (siehe Beispiele 4 - 7). Im Gegensatz zu den biochemisch verwandten Phospholipasen C oder -D wird das LCE nicht durch bekannte Inhibitoren von Phospholipase C oder -D gehemmt oder durch Aktivatoren von Phospholipase C oder -D aktiviert. Im Gegensatz zu Phospholipase C wird das Enzym durch die Substanz D 609 (Tricyclodecan-9-yl-xanthogenat; C11H15OS2 K) aktiviert, während D 609 Phospholipase C inhibiert.

[2] = system: LCE; experiment: Influence of enzyme inhibitors or activators on LCE activity, kidney membrane fraction; type: biochemical, Balb/c
Experimental: Das Pipettierschema ist in der folgenden Tabelle angegeben. Tabelle
Zur Untersuchung der enzymatischen Spaltung in Abhängigkeit von der Substratkonzentration wurde eine Substratstammlösung von 0.98 nmol [^14C]-AZT-DMDOPE und 0.7 nmol AZT-DMDOPE/80 µl Aqua bidest. im LCE-Assay angesetzt. Die verschiedenen Substratkonzentrationen im LCE-Assay wurden durch kontinuierliche Verdopplung bzw. Halbierung des Volumens an Substratlösung eingestellt. Die Ansätze wurden in Glasröhrchen (5 ml) vorgelegt und durch Zugabe der Substratlösung gestartet. Die Inkubation wurde bei 37 °C im Wasserbad unter leichtem Schütteln durchgeführt.
Die Reaktionsansätze des LCE-Assays wurden nach entsprechender Inkubationszeit dem Wasserbad entnommen, und die Reaktion durch Zugabe von 750 µl 2-Propanol gestoppt. Nach gründlicher Durchmischung wurden die Ansätze anschließend mit 700 µl auf Raumtemperatur erwärmtem n-Heptan versetzt. Die Ansätze wurden erneut für 30 sec gut gemischt und zur Beschleunigung der Phasentrennung in der Minifuge T bei 3200 rpm für 15 min bei Raumtemperatur zentrifugiert. Anschließend wurden 500 µl der oberen Phase (n-Heptan) entnommen und in neue Glasröhrchen (5 ml) mit 10 mg Kieselgel 60 H und 200 µl n-Heptan überführt. Die Ansätze wurden für 30 sec gut durchmischt und zur Sedimentation des Kieselgels für 10 min unter oben genannten Bedingungen zentrifugiert. Vom Überstand wurden anschließend 500 µl entnommen und mit 3 ml Szintillationsflüssigkeit versetzt. Die Messung der Radioaktivität erfolgte für 4 min im Flüssigkeits-Szintillations-Analysator. Zur Bestimmung des Absolutwertes an Radioaktivität wurden 200 µl der Substratlösung mit 3 ml Szintillationsflüssigkeit versetzt und unter gleichen Bedingungen im Flüssigkeits-Szintillations-Analysator gemessen.

[3] = system: stimulierten humanen PBL; experiment: Intracellular concentrations of AZT and AZT nucleotides (radioimmunoassay) in stimulated human PBL; details: for Konzentrationen an AZT und AZT-Nukleotiden nach Abfall bei zunehmender Inkubationszeit: up to 24 h
Description: Zur Bestimmung der intrazellulären Konzentrationen an AZT und/oder AZT-Nukleotiden nach Inkubation mit AZT-DMDOPE bzw. AZT wurden humane PBL aus "Buffy coat" isoliert.
Hierfür wurde "Buffy-coat" von gesunden Spendern gemischt und durch Zentrifugation in einem isotonischen Medium mit einer Dichte von 1.077 g/ml fraktioniert. Da mononukleare Blutzellen (Monozyten und Lymphozyten) eine geringere Dichte als Erythrozyten und polymorphkernige Granulozyten haben, bilden sie einen Ring an der Grenze zwischen Trennmedium und Probe und können mit Hilfe einer Pipette abgenommen werden. Erythrozyten und polymorphkernige Granulozyten sedimentieren aufgrund ihrer höheren Dichte durch das Medium und lassen sich somit von PBL separieren. Zur Stimulation der Zellproliferation wurde Phytohämaglutinin A (Mukoprotein) (PHA-M), der mitogene Lektinextrakt aus der roten Feuerbohne (Phaseolus vulgaris), eingesetzt. Phytohämagglutinin ist eine Familie von 5 Isolektinen, die als Tetramere vorliegen. Die Untereinheiten bestehen aus einem lymphozytenreaktiven Typ-L und einem erythrozytenreaktiven Typ-E. Typ-L hat eine hohe Affinität zu Lymphozytenoberflächenrezeptoren und ist somit verantwortlich für die mitogenen Eigenschaften. Die Stimulation der Lymphozyten wurde in KPMI 1640 Komplettmedium III für 72 h bei 37 °C und 5 % CO2 durchgeführt. Nach Beendigung der Stimulation wurden zur Erhöhung der Zellzahl die Zellen für weitere 24 h in RPMI 1640 Komplettmedium IV kultiviert.
Zur Bestimmung der intrazellulären Konzentrationen an AZT und AZT-Nukleotiden wurden die Zellen in RPMI 1640 Komplettmedium II mit einer Dichte von 1 x 10^6 Zellen/ml in Gewebekulturflaschen (50 ml/25 cm^2) überführt, und in Anwesenheit von 0.03 bzw. 0.3 µg AZT/ml (Charge 15) und 1 bzw. 10 µg AZT-DMDOPE/ml für 1 - 24 h inkubiert.
Die Kulturen wurden anschließend für 1, 3, 6 und 24 h bei 37 °C und 5 % CO2 inkubiert. AZT und seine Nukleotide wurden anschließend mit 60 % Methanol extrahiert. Die extrahierten Nukleotide wurden mit alkalischer Phosphatase quantitativ zu AZT dephosphoryliert, da nur AZT, nicht jedoch die entsprechenden Nukleotide mit Hilfe eines Radioimmuno-Assays detektiert werden kann.
Die Konzentrationen an intrazellulärem AZT, die mit Hilfe des Radioimmuno-Assays bestimmt wurden, setzten sich dementsprechend aus der des AZT und den der AZT-Nukleotide zusammen. Eine separate Quantifizierung der Konzentrationen an AZT-MP, AZT-DP und AZT-TP wurde nicht durchgeführt.
Diese Experimente wurden an stimulierten humanen PBL durchgeführt.
Hierfür wurden Zellsuspensionen mit einer Dichte von 10^6 Zellen/ml mit 1 bzw. 10 µg AZT-DMDOPE/ml für 6 bzw. 24 h bei 37 °C und 5 % CO2 inkubiert.
Zur quantitativen Bestimmung von AZT wurde ein kommerzieller ^125J-AZT RIA Test-Kit verwendet. Puffer und Lösungen wurden gemäß den Angaben des Herstellers angesetzt und im Test-Kit eingesetzt. Die Reaktionsansätze wurden nach untenstehendem Schema (Tab. ) pipettiert, vorsichtig gemischt und für 2 h bei Raumtemperatur inkubiert. Anschließend wurden zur Präzipitation des Komplexes aus ^125J-AZT und des AZT-Antikörpers (aus Kaninchen) 500 µl des Ziege-Anti-Kaninchen-Antikörpers hinzugefügt. Die Ansätze wurden gemischt und erneut bei Raumtemperatur für 30 min inkubiert.

[4] = system: nichtstimulierten humanen PBL; experiment: Intracellular concentrations of AZT and AZT nucleotides (radioimmunoassay) in non-stimulated human PBL; type: in vitro ADME
Description: AZT wurden humane PBL aus "Buffy coat" isoliert.

[5] = system: P3X63Ag8.653-Zellen; experiment: Intracellular concentrations of AZT and AZT nucleotides (radioimmunoassay) in thymidine kinase deficient cells; type: in vitro ADME; details: after 48 h
Description: Die Bestimmung der intrazellulären Konzentrationen an AZT und AZT-Nukleotiden in Thymidikinasedefizienten Zellen sollte weitere Erkenntnisse über die intrazelluläre Spaltung der Testsubstanz AZT-DMDOPE liefern. Intrazelluläres AZT kann in diesen Zellen aufgrund eines Mangels an Thymidin-Kinase (TK) nicht in ATZ-MP und somit in das therapeutisch wirksame AZT-TP überführt werden. Die Bestimmung der intrazellulären Konzentrationen an AZT und AZT-Nukleotiden nach Inkubation mit AZT-DMDOPE könnte somit einen weiteren Hinweis auf die Spaltung der Teststubstanz geben.
Hierfür wurden in Gewebekulturschalen (60 x 15 mm) 1 x 10^7 Zellen in RPMI 1640 Komplettmedium I mit 0.03 bzw. 0.3 µg AZT/ml und 1 bzw. 10 µg AZT-DMDOPE/ml über 6, 24 und 48 h inkubiert. Nach Extraktion von AZT und der AZT-Nukleotide und einer Behandlung mit alkalischer Phosphatase wurde die Konzentration an AZT mit Hilfe des Radioimmuno-Assays bestimmt.

[6] = system: stimulierten humanen PBL; experiment: Intracellular decay kinetics of AZT and AZT nucleotides after removal of the incubation solution; type: in vitro ADME, human; details: 24 h preincubation with 0.3 µg AZT/ml, reached 6 h after removal
Experimental: Stimulierte humane PBL wurden für 24 h mit 0.3 µg AZT/ml bzw. 10 µg AZT-DMDOPE/ml inkubiert. Anschließend wurden 1 x 10^7 Zellen in Gewebekulturflaschen (50 ml/25 cm^2) mit RPMI 1640 Komplettmedium I überführt. Nach 1, 3, 6, 24 und 48 h wurde AZT und die AZT-Nukleotide aus der zellulären Matrix extrahiert. Nach einer Behandlung mit alkalischer Phosphatase wurde mit Hilfe des Radioimmuno-Assays die Konzentration an AZT bestimmt.

[7] = target: virale reverse Transkriptase (RT) (Human immunodeficiency virus type 1 group M subtype B, UniProt P04585); details: intracellular AZT in non-phosphorylated form; cited from earlier work
[8] = system: LCE; experiment: LCE assay: dependence of AZT-DMDOPE cleavage on EGTA and divalent metal cations; type: biochemical, human; details: for DMDOP / Spezifische Aktivität / Inhibition: Effektor 2 mM, 2 h 37 °C, n = 3; for DMDOP / Spezifische Aktivität: Membranfraktionen stimulierter humaner PBL 0.068 mg/Ansatz; for Inhibition: relative to EGTA, Membranfraktionen stimulierter humaner PBL; for Inhibierung der LCE-Aktivität (in words): divalent metal cations, 2 mM in Example 9
Experimental: Die Abhängigkeit der enzymatischen Spaitung von AZT-DMDOPE durch das LCE von zweiwertigen Metallkationen wurde mit Membranfraktionen stimulierter humaner PBL als Enzymquelle untersucht.
Die zweiwertigen Metallkationen wurden in einer Konzentration von 2 mM im LCE-Assay eingesetzt. Die Proteinkonzentration wurde mit 0.068 mg/Ansatz festgelegt.
Parallel wurde ein Ansatz mit EGTA mitgeführt. EGTA ist ein spezifischer Komplexbildner für Ca^2+ das essentiell für die Aktivität der Phospholipase C ist. Nach einer Inkubationszeit von 2 h bei 37 °C wurde der Umsatz der Muttersubstanz gemessen und die spezifische Aktivität des LCE bestimmt (folgende Tabelle).

[9] = LCE Membranfraktion Niere (Balb/c)

Molecule: CCCCCCCCCCCCSCC(COP(=O)(O)OC[C@H]1O[C@@H](n2cc(F)c(=O)[nH]c2=O)[C@H](O)[C@@H]1O)OCCCCCCCCCC (stereo partly drawn) [5-FU-DMDOPE, (5-Fluoruridin)-5'-phosphorsäure-(3-dodecylmercapto-2-decyloxy)-propylester]
- Spaltung durch LCE [1]: gespalten

Molecule: O=[N+]([O-])c1cccc2cn[nH]c12 [7-Nitroindazol]
- Einfluß auf LCE-Aktivität [2, 9]: keine

Molecule: Cc1cn([C@H]2C[C@H](N=[N+]=[N-])[C@@H](CO)O2)c(=O)[nH]c1=O [AZT, 3'-Desoxy-3'-azidothymidin, reference compound]
- maximale Konzentrationen an AZT und AZT-Nukleotiden ([3]; incubation with 0.03 µg AZT/ml, reached after 6 h): 2.90 ng/10^6 Zellen
- Konzentrationen an AZT und AZT-Nukleotiden nach Abfall bei zunehmender Inkubationszeit ([3]; incubation with 0.03 µg AZT/ml): 2.32 ng/10^6 Zellen
- maximale Konzentrationen an AZT und AZT-Nukleotiden ([3]; incubation with 0.3 µg AZT/ml, reached after 3 h): 30.97 ng/10^6 Zellen
- Konzentrationen an AZT und AZT-Nukleotiden nach Abfall bei zunehmender Inkubationszeit ([3]; incubation with 0.3 µg AZT/ml): 19.88 ng/10^6 Zellen
- intrazelluläre Konzentrationen an AZT und AZT-Nukleotiden ([4]; 0.03 µg AZT/ml): 0.10 ng/10^6 Zellen
- intrazelluläre Konzentrationen an AZT und AZT-Nukleotiden ([4]; 0.3 µg AZT/ml): 0.47 ng/10^6 Zellen
- maximale intrazelluläre Konzentrationen an AZT und AZT-Nukleotiden ([5]; 0.03 µg AZT/ml): 0.03 ng/10^6 Zellen
- maximale intrazelluläre Konzentrationen an AZT und AZT-Nukleotiden ([5]; 0.3 µg AZT/ml): 0.31 ng/10^6 Zellen
- konstanter Wert der intrazellulären Konzentrationen an AZT und AZT-Nukleotiden [6]: 0.40 ng/10^6 Zellen
- inhibitorische Wirkung auf die virale reverse Transkriptase (RT) [7]: keine inhibitorische Wirkung

Molecule: CC(=O)Oc1ccccc1C(=O)O [Acetylsalicylsäur e]
- Einfluß auf LCE-Aktivität [2, 9]: keine

Molecule: O=C(O)CN(CCOCCOCCN(CC(=O)O)CC(=O)O)CC(=O)O [EGTA]
- DMDOP [8]: 84.96 ± 11.18 pmol
- Spezifische Aktivität [8]: 10.41 ± 1.37 pmol/mg/min
- Inhibition [8]: ≡ 0%

Molecule: CCCCCCCCCCCCSCC(COP(=O)(O)OC[C@H]1O[C@@H](n2cc(C)c(=O)[nH]c2=O)C[C@@H]1F)OCCCCCCCCCC (stereo partly drawn) [FLT-DMDOPE, (3'-Desoxy-3'-fluorthymidin)-5'-phosphorsäure-(3-dodecylmercapto-2-decyloxy)-propylester]
- Spaltung durch LCE [1]: gespalten

Molecule: Nc1nc2c(ncn2C2OC(COP(=O)(O)OP(O)(=S)OP(=O)(O)O)C(O)C2O)c(=O)[nH]1 (stereo not drawn) [GTP-β-S]
- Einfluß auf LCE-Aktivität [2, 9]: keine

Molecule: [Cl][Mn][Cl] [MnCl2]
- DMDOP [8]: 4.75 ± 0.63 pmol
- Spezifische Aktivität [8]: 0.58 ± 0.08 pmol/mg/min
- Inhibition [8]: 94%
- Inhibierung der LCE-Aktivität (in words) [8]: totalen Hemmung
- Inhibierung der LCE-Aktivität (in words) ([8]; listed as Mn^2+): Inhibierung

Molecule: O=C(NCCCCCCNC(=O)ON=C1CCCCC1)ON=C1CCCCC1 [RHC-80267]
- Einfluß auf LCE-Aktivität [2, 9]: keine

Molecule: Nc1ncnc2c1ncn2C1CCCO1 (stereo not drawn) [SQ 22536]
- Einfluß auf LCE-Aktivität [2, 9]: keine

Molecule: COC[C@H]1OC(=O)c2coc3c2[C@@]1(C)C1=C(C3=O)[C@@H]2CCC(=O)[C@@]2(C)C[C@H]1OC(C)=O [Wortmannin]
- Einfluß auf LCE-Aktivität [2]: keine

Molecule: CaCl2
- DMDOP [8]: 50.50 ± 2.13 pmol
- Spezifische Aktivität [8]: 6.19 ± 0.26 pmol/mg/min
- Inhibition [8]: 41.0 ± 0.25% and 41.0 ± 2.5%
- Inhibierung der LCE-Aktivität (in words) [8]: Inhibierung

Molecule: MgCl2
- DMDOP [8]: 84.36 ± 17.02 pmol
- Spezifische Aktivität [8]: 10.34 ± 2.08 pmol/mg/min
- Inhibition [8]: 0%
- Inhibierung der LCE-Aktivität (in words) [8]: keine Inhibierung

Molecule: Neomycin
- Einfluß auf LCE-Aktivität [2, 9]: keine

Molecule: ZnCl2
- Spezifische Aktivität [8]: 0 pmol/mg/min
- Inhibition [8]: 100.0%
- Inhibierung der LCE-Aktivität (in words) [8]: totalen Hemmung
- Inhibierung der LCE-Aktivität (in words) ([8]; listed as Zn^2+): Inhibierung
